Earlier results in paper PMC4474874, “Effect of JAK Inhibitors on Release of CXCL9, CXCL10 and CXCL11 from Human Airway Epithelial Cells” (PLoS ONE, 2015).
Like-named read-outs stand apart in the source and are kept apart here.

Columns and labels:
GSK3b = tested on: GSK3b; design: method as in PMID 18094329; conditions: inactive or IC50 >30μM; read-out: IC50 against GSK3b; cited from earlier work
MET = tested on: MET; design: method as in PMID 18094329; conditions: inactive or IC50 >30μM; read-out: IC50 against MET; cited from earlier work
JAK2 = tested on: JAK2; design: method as in PMID 18094329; conditions: cellular assay; cited from earlier work
CHK1 = tested on: CHK1; design: method as in PMID 18094329; conditions: inactive or IC50 >30μM; read-out: IC50 against CHK1; cited from earlier work
PDK1 = tested on: PDK1; design: method as in PMID 18094329; conditions: inactive or IC50 >30μM; read-out: IC50 against PDK1; cited from earlier work
IKKb = tested on: IKKb; design: method as in PMID 18094329; conditions: inactive or IC50 >30μM; read-out: IC50 against IKKb; cited from earlier work
Lck = tested on: Lck; design: method as in PMID 18094329; conditions: at concentrations >5μM; cited from earlier work
INSR = tested on: INSR; design: method as in PMID 18094329; conditions: inactive or IC50 >30μM; read-out: IC50 against INSR; cited from earlier work
FGFR1 = tested on: FGFR1; design: method as in PMID 18094329; conditions: inactive or IC50 >30μM; read-out: IC50 against FGFR1; cited from earlier work
AKT = tested on: AKT; design: method as in PMID 18094329; conditions: inactive or IC50 >30μM; read-out: IC50 against AKT; cited from earlier work
[1] = tested on: chronic lymphocytic leukaemia cells; design: method as in PMID 20716767; conditions: cited from earlier work
MAPK1 = tested on: MAPK1; design: method as in PMID 18094329; conditions: inactive or IC50 >30μM; read-out: IC50 against MAPK1; cited from earlier work
GSK3β = tested on: GSK3β; design: method as in Coe et al., 25; conditions: ATP at the Km; ref Coe et al., 25; cited from earlier work
JAK3 = tested on: JAK3; design: method as in Coe et al., 25; conditions: ref Coe et al., 25, cited from earlier work
TAOK2 = tested on: TAOK2; design: method as in Coe et al., 25; conditions: ATP at the Km; ref Coe et al., 25; cited from earlier work
[2] = tested on: human T lymphocytes (JAK1/3); design: method as in Coe et al., 25; conditions: ref Coe et al., 25; read-out: IC50 IL-2-induced P-STAT5 human T lymphocytes (JAK1/3); cited from earlier work
TrkA = tested on: TrkA; design: method as in Coe et al., 25; conditions: ATP at the Km; ref Coe et al., 25; cited from earlier work
[3] = tested on: human T lymphocytes (JAK1/3); design: method as in Coe et al., 25; conditions: ref Coe et al., 25; read-out: IC50 IL-2-induced IFNγ release by human T lymphocytes (JAK1/3); cited from earlier work

Compound | IC50 (GSK3b) [µM] | IC50 (MET) [µM] | IC50 (JAK2) [µM] | IC50 (CHK1) [µM] | IC50 (PDK1) [µM] | IC50 (IKKb) [µM] | effect against Lck (Lck) | IC50 (INSR) [µM] | IC50 (FGFR1) [µM] | IC50 (AKT) [µM] | concentration effective against IL-4-induced cytotoxic resistance [1] | IC50 (MAPK1) [µM] | IC50 (GSK3β) [µM] | IC50 (JAK3; 1mM ATP, read-out: IC50 JAK3 1 mM) [µM] | IC50 (JAK3; ATP at the Km, read-out: IC50 JAK3 Km) [µM] | IC50 (TAOK2) [µM] | IC50 [2] [µM] | IC50 (TrkA) [µM] | IC50 [3] [µM]
C[C@@H]1CCN(C(=O)N2CCCC2)C[C@@H]1N(C)c1ncnc2[nH]ccc12 [PF956980] | > 30 | > 30 | 0.188 | > 30 | > 30 | > 30 | modest effects | > 30 | > 30 | > 30 | ~ 0.3 μM | > 30 |  |  |  |  |  |  | 
CCc1cc(O)ccc1-c1ccc2c(-c3nc4ccccc4[nH]3)n[nH]c2c1 [PF1367550, 4-(3-(1H-benzo[d]imidazol-2-yl)-1H-indazol-6-yl)-3-ethylphenol] |  |  |  |  |  |  |  |  |  |  |  |  | 0.617 | 0.014 | 0.001 | 0.781 | 0.011 | 0.227 | 0.014
